Patent publication US11814370B2, “Deuterated N-(5-(2,3-dihydrobenzo[b][1,4]dioxine-6-carboxamido)-2-fluorophenyl)-2-((4-ethylpiperazin-1-yl)methyl)quinoline-6-carboxamide” (priority 2016, dated 2023)

Experiments:
[1] = system: SK-OV-3 ovarian cancer cell line; assay: cells; format: cell-based; details: Homo sapiens, SK-OV-3, 96 h, read-out: SK-OV-3 pGI50 ± SEM (n) (converted)
Protocol: Cells were grown in DMEM/10% FCS, 2 mM glutamine and nonessential amino acids in 5% CO2.
In Vitro Cell Viability Assay
The cell titer blue viability (CTB) (Promega) assay provides a homogenous, fluorometric method for estimating the number of viable cells. It uses the dark blue indicator dye resazurin to measure the metabolic capacity of cells which is an indicator of cell viability. Viable cells are able to reduce resazurin into resorufin (pink), which is highly fluorescent. […] Compounds (at a range of concentrations) were added using the ECHO 550 liquid handler (Labcyte, USA) and then left at 37° C. for 96 h. Titre blue reagent was added to each well and left at 37° C. for 3-4 h. Fluorescence was measured using the Envision machine (Perkin Elmer, UK). The 50% growth inhibitory concentration (GI50) was determined by fitting the data to a dose-response curve without limits using non-linear regression. Each concentration was tested twice.

[2] = system: HSP72 induction (product of HSF1 transcriptional activity) in SK-OV-3 cells; assay: Cell-based ELISA (Cellisa) for HSP72 expression after 17-AAG; parameters: species or system human; details: SK-OV-3 ovarian cancer cell line; summary of Table 1
Protocol: Prior to use, the cells were analyzed by short tandem repeat (STR) profiling. Polymorphic STR loci were amplified using a polymerase chain reaction (PCR) primer set. The PCR product (each locus being labelled with a different fluorophore) was analyzed simultaneously with size standards using automated fluorescent detection. The number of repeats at 10 different loci (as recommended by the American Type Culture Collection, ATCC) was used to define the STR profile and this was cross-referenced with online databases to confirm authenticity. […] The cells were free of mycoplasma contamination as determined by a sensitive nested PCR protocol (Venor GeM kit, Minerva Biolabs, Germany). Cells were grown in DMEM/10% FCS, 2 mM glutamine and nonessential amino acids in 5% CO2.
Cell-Based ELISA (Cellisa) for HSP72 Expression
To follow HSP72 protein expression, a product of HSF1 transcriptional activity, the Cellisa was developed. […] The medium was removed and cells were fixed with fixing solution (4% paraformaldehyde, 0.3% TritonX-100 in PBS buffer) for 30 min at 4° C. The plates were then washed with 0.1% Tween-20/deionized water, before blocking with 5% milk for 30 mins at 37° C. […] Following 4× washes, the plates were incubated with europium-labelled anti-mouse antibody (0.6 μg/mL) in Delfia assay buffer (Perkin Elmer) for 1 h at 37° C. […]

Compound	GI50 [1] [nM]	cellular activity (in words) [2]
[2H]C1([2H])Oc2ccc(C(=O)Nc3ccc(F)c(NC(=O)c4ccc5nc(CN6CCN(CC)CC6)ccc5c4)c3)cc2OC1([2H])[2H] [Compound C, N-(5-(2,3-Dihydrobenzo-d4-[b][1,4]dioxine-6-carboxamido)-2-fluorophenyl)-2-((4-ethylpiperazin-1-yl)methyl)quinoline-6-carboxamide]	11.5	
[2H]C1([2H])N(CC)C([2H])([2H])C([2H])([2H])N(Cc2ccc3cc(C(=O)Nc4cc(NC(=O)c5ccc6c(c5)OCCO6)ccc4F)ccc3n2)C1([2H])[2H] [Compound B, N-(5-(2,3-Dihydrobenzo[b][1,4]dioxine-6-carboxamido)-2-fluorophenyl)-2-((4-ethyl-piperazin-d8-1-yl)methyl)quinoline-6-carboxamide]	18.2	
[2H]C([2H])([2H])C([2H])([2H])N1CCN(Cc2ccc3cc(C(=O)Nc4cc(NC(=O)c5ccc6c(c5)OCCO6)ccc4F)ccc3n2)CC1 [Compound A, N-(5-(2,3-Dihydrobenzo[b][1,4]dioxine-6-carboxamido)-2-fluorophenyl)-2-((4-ethyl-d5-piperazin-1-yl)methyl)quinoline-6-carboxamide]		potent cellular activity
